Experimental findings from US8962674B2 (Tokyo Institute of Technology, priority 2006, dated 2015) are described below.

For one data set, the target named is aggregated Aβ1-42 (Homo sapiens (Human), UniProt P05067). The data set can be described thus: Aβ1-42 degradation assay on pre-formed aggregates, thioflavin T fluorescence (Test Example 3). It is filed as biochemical. The conditions noted are these: aggregated Aβ, 1 hr at 37° C., read-out: IC50 (Aβ1-42 aggregate degradation, Table 2 head). Here is the method: Aβ1-42 (Peptide Institute) was dissolved in a 0.1% NH3 solution at a concentration of 60 μM, and incubated for 24 hr at 37° C. to form the aggregation. 25 μM of the aggregated Aβ solution diluted by 100 mM phosphate buffer (pH 7.4) and the compound dilution containing 2% DMSO were mixed in equal amount. The mixtures were incubated for 1 hr at 37° C. in a black 96-well plate. After incubation, 6 μM thioflavin T (Sigma) in 100 mM of glycine-NaOH buffer, pH 8.5, was added, and fluorescence was measured for excitation at 440 nm and emission at 486 nm. The solution with DMSO only, instead of the compound solution, was used as a negative control. The activity was calculated as a percentage of the negative control.
aggregated Aβ1-42, sequence (P05067 672-713): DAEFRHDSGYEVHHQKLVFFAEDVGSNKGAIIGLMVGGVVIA

The IC50 is the concentration that gives 50% inhibition. What is called melting point is the temperature of the solid-liquid transition. Compound `COc1cc(/C=C/C(=O)CC(=O)/C=C/c2ccc(S(C)(=O)=O)cc2)ccc1O` [CU005, (1E,6E)-1-(4-hydroxy-3-methoxyphenyl)-7-(4-methanesulfonylphenyl)hepta-1,6-diene-3,5-dione] had a melting point of 117 to 120 °C. For the same compound, the IC50 at aggregated Aβ1-42 was 3.3 µM. As for `COc1cc(/C=C/C(=O)CC(=O)/C=C/c2ccc(N(C)C)c3ccccc23)ccc1O` [CU019, (1E,6E)-1-(4-dimethylaminonaphthalen-1-yl)-7-(4-hydroxy-3-methoxyphenyl)hepta-1,6-diene-3,5-dione], at aggregated Aβ1-42, the IC50 is 0.4 µM. With `COc1cc(/C=C/C(=O)CC(=O)/C=C/c2ccc[nH]2)ccc1O` [CU022, (1E,6E)-1-(4-hydroxy-3-methoxyphenyl)-7-(1H-pyrrol-2-yl)hepta-1,6-diene-3,5-dione], the melting point lay within 83 to 87 °C. Besides, the IC50 on aggregated Aβ1-42 came to 5.3 µM.
